pIC50: −log10 of the molar value.
Tests used:
COX-1 = COX-1 (Homo sapiens, UniProt P23219); experiment: COX-1 inhibition, peroxidase activity assay; type: biochemical; settings: 99% bakuchiol sample, IC50 normalized to enzyme units
From the text: In order to screen for compounds that inhibited COX-1 and COX-2 activity, a high throughput, in vitro assay was developed that utilized the inhibition of the peroxidase activity of both enzymes. (Needleman et al. (1986) Annu Rev Biochem. 55:69). Briefly, the composition or compound being examined was titrated against a fixed amount of COX-1 and COX-2 enzymes. A cleavable, peroxide chromophore was included in the assay to visualize the peroxidase activity of each enzyme in presence of arachidonic acid as a cofactor. Typically, assays were performed in a 96-well format. Each inhibitor, taken from a 10 mg/mL stock solution in 100% DMSO, was tested in triplicate at room temperature using the following range of concentrations: 0, 0.1, 1, 5, 10, 20, 50, 100, and 500 μg/mL. To each well, 150 μL of 100 mM Tris-HCl, pH 7.5 was added along with 10 μL of 22 μM Hematin diluted in tris buffer, 10 μL of inhibitor diluted in DMSO and 25 units of either the COX-1 or COX-2 enzyme. […] The plate was shaken for 10 seconds and then incubated 5 minutes before reading the absorbance at 570 nm. The inhibitor concentration vs. % inhibition was plotted and the IC50 determined by taking the half-maximal point along the isotherm and intersecting the concentration on the X-axis. […]

[1] = target: T1, human 5-lipoxygenase (5-LO or 5-LOX) (Homo sapiens, UniProt P09917); experiment: Lipoxygenase Inhibition Assay (LTB4 formation, EIA); type: biochemical; settings: 99% bakuchiol; 5-LOX from human PBML cells, arachidonic acid substrate
T1 construct: 5-LOX was isolated from human PBML cells; endogenous in cells; host or cells: human PBML cells (peripheral blood mononuclear leukocytes)
T1 sequence (P09917 1-674): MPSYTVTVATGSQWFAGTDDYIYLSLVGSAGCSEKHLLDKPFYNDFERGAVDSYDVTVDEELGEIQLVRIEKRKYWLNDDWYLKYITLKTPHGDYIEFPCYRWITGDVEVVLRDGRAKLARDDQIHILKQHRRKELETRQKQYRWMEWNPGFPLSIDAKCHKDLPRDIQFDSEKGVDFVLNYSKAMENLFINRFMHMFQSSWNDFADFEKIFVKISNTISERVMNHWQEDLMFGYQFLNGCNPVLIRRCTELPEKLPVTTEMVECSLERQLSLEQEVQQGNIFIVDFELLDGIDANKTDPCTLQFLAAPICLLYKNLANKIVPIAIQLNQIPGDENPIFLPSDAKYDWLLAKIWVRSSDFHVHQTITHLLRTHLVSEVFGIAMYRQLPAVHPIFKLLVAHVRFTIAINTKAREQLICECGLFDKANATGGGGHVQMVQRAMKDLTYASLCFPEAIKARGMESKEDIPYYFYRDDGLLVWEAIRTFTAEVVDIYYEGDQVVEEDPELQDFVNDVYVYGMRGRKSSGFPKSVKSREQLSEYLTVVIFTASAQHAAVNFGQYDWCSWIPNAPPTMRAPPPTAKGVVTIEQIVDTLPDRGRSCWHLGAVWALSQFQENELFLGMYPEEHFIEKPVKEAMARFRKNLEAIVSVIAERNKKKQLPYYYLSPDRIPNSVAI
Description: As noted above, one of the most important pathways involved in the inflammatory response is produced by non-heme, iron-containing lipoxygenases (5-LOX, 12-LOX, and 15-LOX), which catalyze the oxidation of fatty acids such as AA to produce the hydroperoxides 5-, 12- and 15-HPETE, which are then converted to leukotrienes. A Lipoxygenase Inhibition Assay was carried out using a published method (Carter et al. (1991) J. Pharmacol. Exp. Ther. 256(3):929-937, Safayhi et al. (2000) Planta Medica. 66:110-113). 5-LOX was isolated from human PBML cells and arachidonic acid was utilized as a substrate. The test article and positive control were dissolved in 1% DMSO. HBSS (Hank's balanced salt solution) was used as incubation buffer. Pre-incubation time was 15 minutes at 37° C., followed by 15 min. incubation at the same temperature. This assay detects the formation of LTB4 with EIA quantification. Highly pure bakuchiol (99% bakuchiol, #MH-258-12-08) was tested in duplicate at concentrations of 10 μM, 1 μM, 0.1 μM, and 10 nM relative to a positive control-NDGA at five concentrations. The dose response curve is illustrated in the FIG. 6.

[2] = test system: Propionibacterium acnes (ATCC 6919); experiment: Antimicrobial activity, turbidity; type: cell-based; settings: 99% pure sample, tested at 0.03-100 μg/mL, 1 day
Description: (§1) The anti-microbial activity of a highly pure bakuchiol sample (99% pure; #MH-258-12-08) was evaluated using published methods (Modugno et al. (1994) Antimicrobial Agents & Chemotherapy 38:2362-2368; Misiek et al. (1973) Antimicrobial Agents & Chemotherapy 3:40-48). Briefly, Staphylococcus epidermidis (Gram Positive. ATCC 12228) was cultured for 20 hours at 37° C. in Mueller-Hinton Broth medium. Propionibacterium acnes (ATCC 6919) was cultured for 2 days at 37° C. in Reinforced Clostridial medium. The test article and positive control were dissolved in 1% DMSO with an incubation volume of 1 mL. The time of assessment was 1 day. Measurement of turbidity was used as the method of quantification. A highly pure bakuchiol sample (99%; #MH-258-12-08) was tested in duplicate at concentrations of 100 μg/mL, 30 μg/mL, 10 μg/mL, 3 μg/mL, 1 μg/mL, 0.3 μg/mL, 0.1 μg/mL and 0.03 μg/mL relative to positive controls-gentamicin at 0.1 μg/mL for Staphylococcus epidermidis and ampicillin at 0.1 μg/mL for Propionibacterium acnes, respectively.

[3] = test system: Staphylococcus epidermidis (Gram Positive, ATCC 12228); experiment: Antimicrobial activity, turbidity; type: cell-based; settings: 99% pure sample, tested at 0.03-100 μg/mL, 1 day
Description: as §1

[4] = test system: Trichophyton mentagrophytes (ATCC 9533); experiment: Antimicrobial activity; type: cell-based; settings: 99% pure sample; tested at 0.03-100 μg/mL
[5] = test system: Epidermophyton floccosum (ATCC 18397); experiment: Antimicrobial activity; type: cell-based; settings: 99% pure sample, tested at 0.03-100 μg/mL
[6] = test system: Microsporum canis (ATCC 36299); experiment: Antimicrobial activity; type: cell-based; settings: 99% pure sample, tested at 0.03-100 μg/mL
[7] = test system: Pityrosporum ovale (ATCC 38593); experiment: Antimicrobial activity; type: cell-based; settings: 99% pure sample, tested at 0.03-100 μg/mL
[8] = Acute toxicity, 14-day study in mice; type: in vivo, female ICR mice
Description: […] Forty female ICR mice (Harlan) aged 4-5 weeks old were used for the 14-day study. Mice were administered […] of the acute dose daily, approximately 2 g/kg by weight per test article per day. The first 10 mice received the composition containing 20.7% bakuchiol, while the second group of 10 mice received a composition containing 99% bakuchiol. The UP256 composition was suspended in water and administered through a syringe. Twenty mice were administered water, as the control group. The weights of all mice were measured, including baseline, 3 mid points, and an endpoint. […] Any abnormal health conditions or behavior was recorded over the two-week period. A necropsy of all mice was completed on day 14 and blood from all groups was collected for a complete blood screen. Two mice picked randomly from each of groups also had kidney and liver tissues removed for Histopathology. All blood work and pathology work was completed through Antech Diagnostics.

PTPIB = target: T2, PTPIB (Homo sapiens, UniProt P18031); settings: Kim et al. 2005; cited from earlier work
T2 sequence (P18031 1-435): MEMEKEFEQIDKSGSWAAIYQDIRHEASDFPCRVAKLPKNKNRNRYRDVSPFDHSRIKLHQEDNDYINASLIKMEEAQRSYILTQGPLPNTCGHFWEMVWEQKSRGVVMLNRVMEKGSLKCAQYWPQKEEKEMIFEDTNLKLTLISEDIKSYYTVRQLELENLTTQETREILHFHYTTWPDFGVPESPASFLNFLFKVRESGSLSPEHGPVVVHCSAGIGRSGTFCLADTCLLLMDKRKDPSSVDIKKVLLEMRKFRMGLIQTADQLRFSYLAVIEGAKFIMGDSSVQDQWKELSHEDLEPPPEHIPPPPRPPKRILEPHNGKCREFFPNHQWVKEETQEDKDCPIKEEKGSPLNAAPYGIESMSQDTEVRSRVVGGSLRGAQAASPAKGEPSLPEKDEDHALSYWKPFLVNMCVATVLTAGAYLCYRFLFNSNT

COX-1 versus COX-2 = settings: COX-1 selective inhibitor; cited from earlier work
[9] = 20.7% and 99% bakuchiol samples, approximately 2 g/kg per day, 14 days
[10] = UP256 at concentrations of 30% and 70%, oral daily 2 g/kg for 14 days
[11] = day 14, 20.7% and 99% bakuchiol samples, approximately 2 g/kg per day
[12] = two mice per group, approximately 2 g/kg per day, 14 days

Sequence of COX-1 (P23219 24-599): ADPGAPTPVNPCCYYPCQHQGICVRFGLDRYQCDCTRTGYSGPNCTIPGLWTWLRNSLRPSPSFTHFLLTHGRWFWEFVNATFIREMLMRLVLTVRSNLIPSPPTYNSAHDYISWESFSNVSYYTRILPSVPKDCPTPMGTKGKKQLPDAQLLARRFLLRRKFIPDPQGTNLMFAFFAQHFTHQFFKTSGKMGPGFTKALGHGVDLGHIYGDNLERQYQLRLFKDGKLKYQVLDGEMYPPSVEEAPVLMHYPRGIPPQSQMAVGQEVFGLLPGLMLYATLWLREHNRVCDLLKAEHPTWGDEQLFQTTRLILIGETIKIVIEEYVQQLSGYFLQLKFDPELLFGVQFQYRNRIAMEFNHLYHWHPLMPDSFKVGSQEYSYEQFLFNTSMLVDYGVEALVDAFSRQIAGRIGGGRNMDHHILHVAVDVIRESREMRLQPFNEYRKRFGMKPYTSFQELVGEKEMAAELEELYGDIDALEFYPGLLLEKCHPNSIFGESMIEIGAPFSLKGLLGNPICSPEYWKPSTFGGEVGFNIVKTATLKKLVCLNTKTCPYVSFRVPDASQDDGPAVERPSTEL

In the case of `C=C[C@@](C)(/C=C/c1ccc(O)cc1)CCC=C(C)C` [UP256, bakuchiol], the pIC50 (COX-1) was 5.63, the pIC50 [1] was 5.47 and the “minimum effective concentration (significant inhibition)” value [2] was 1 µg/mL. The “minimum effective concentration (significant inhibition)” value [3] was 1 µg/mL, the “concentration of moderate inhibition” value [4] was 30 µg/mL and the inhibition [5] was “No inhibition”. The inhibition ([5]; listed as bakuchiol) was “no inhibition”, the inhibition [6] was “No inhibition” and the inhibition ([6]; listed as bakuchiol) was “no inhibition”. For the same molecule, the inhibition [7] was “No inhibition”, the inhibition ([7]; listed as bakuchiol) was “no inhibition” and the average weight [8, 9] was “continued to increase”. For the same molecule, the food/water consumption [8, 9] was “remained the same”, the “significant difference in behavior versus control mice” value [8, 9] was “Aggression towards the investigator (i.e. biting) and towards each other (i.e. fighting in cage)” and the “adverse effects, fourteen-day study” value [8, 10] was “No adverse effects”. For the same molecule, the “toxicity in major organs tested” value [8, 10] was “no toxicity”, the “adverse effects, fourteen-day study” value ([8]; both purity levels (20% and 99% purity), approximately 2 g/kg per day) was “No adverse effects” and the blood work [8, 11] was “normal relative to the controls”. The necropsy [8, 11] was “no gross abnormalities or changes in any organ”, the “histopathology, kidney” value [8, 12] was “significant changes were not present” and the “histopathology, liver hepatocyte nuclei” value [8, 12] was “within normal limits”. For the same molecule, the pIC50 (PTPIB) was 4.68 and the logP (physchem) was 6.13.
In the case of `CC(=O)Oc1ccccc1C(=O)O` [aspirin], the “effectiveness against COX-1 versus COX-2” value (COX-1 versus COX-2) is listed as “more than 150 times”.
